# Test results published in article PMC12391994, “Synthesis of a fac-Tricarbonylrhenium(I) Complex with Pyrithione, Its Physicochemical Characterization, and Assessment of Biological Effects” (ACS Omega, 2025).
# Where two headings read alike, the source gives them in different places.
# What was measured:
# [1] = molecular target: T1, cathepsin B (endopeptidase activity) (Homo sapiens, UniProt P07858); assay: Relative inhibition of cathepsin B endopeptidase activity; type: biochemical; conditions: for relative inhibition cathepsin B endopeptidase: 50 μM, substrate Z-Arg-Arg-AMC, pH 6.0
# T1 construct: made in house; host or cells: E. coli
# Text: (§1) Relative inhibition is expressed as a percentage of the decrease in reaction velocity in the presence of an inhibitor, in comparison to the reaction velocity in the absence of an inhibitor. For that purpose, the specific fluorogenic substrates Z-Arg-Arg-7-amido-4-methylcoumarin (Z-Arg-Arg-AMC) and 2-aminobenzoyl (Abz)-Gly-Ile-Val-Arg-Ala-Lys-(Dnp)-OH were used for cathepsin B endopeptidase and exopeptidase activities, respectively, and Z-Phe-Arg-AMC was used for cathepsin L and V activities.
# (§2) Human recombinant cathepsin B was expressed in E. coli, recombinant cathepsin V was expressed in Pichia pastoris, and human recombinant cathepsin L was expressed in E. coli, as reported. − For the determination of cathepsin B endopeptidase and exopeptidase activities, 100 mM phosphate buffer (pH 6.0) and 60 mM acetate buffer (pH 5.0) were used, respectively, and for the determination of cathepsin V and L activities, 100 mM acetate buffer (pH 5.5) was used. All buffers contained 0.1% PEG 8000 (Sigma-Aldrich, St. Louis, MO), 5 mM cysteine, and 1.5 mM EDTA. Prior to the assay, the enzymes were activated in the assay buffer for 5 min at 37 °C.
# (§3) To determine the effect of inhibitors on enzyme activity, the following substrates were used: Z-Arg-Arg-AMC (final concentration 5 μM, Z-RR-AMC; Bachem, Bubendorf, Switzerland) for cathepsin B endopeptidase activity, Abz-Gly-Ile-Val-Arg-Ala-Lys-(Dnp)-OH (final concentration 1 μM, Abz-GIVRAK-(Dnp)-OH; Bachem) for cathepsin B exopeptidase activity, and Z-Phe-Arg-AMC (final concentration 2 μM, Z-FR-AMC; Bachem) for cathepsin V and L activity. The substrate ([…]) at a final concentration and inhibitor ([…]) at a concentration of 50 μM were added to the wells of a black microplate. The reaction was then initiated by adding 90 μL of activated enzyme (final concentrations: 5 nM cathepsin B for its endopeptidase activity, 0.5 nM cathepsin B for its exopeptidase activity, 2.5 ng/mL for cathepsin V, and 0.02 nM for cathepsin L) in the assay buffer. The formation of fluorescent degradation products during the reaction was continuously monitored at 460 ± 10 nm with excitation at 380 ± 20 nm for Z-Arg-Arg-AMC and Z-Phe-Arg-AMC and at 420 ± 10 nm with excitation at 320 ± 20 nm for Abz-Gly-Ile-Val-Arg-Ala-Lys(Dnp)-OH at 37 °C on a Tecan Infinite M1000 (Mannedorf, Switzerland) spectrofluorometer. All assay mixtures contained 5% (v/v) DMSO. To prevent false-positive inhibition due to the formation of compound aggregates, 0.01% Triton X-100 was used. All measurements were performed in triplicate and repeated twice. The relative inhibition was calculated using the following equation: relative inhibition (%) = 100(1 – v i/v o), where v i and v o designate the reaction velocities in the presence and absence of inhibitor, respectively.
# [2] = molecular target: T2, cathepsin B (exopeptidase activity) (Homo sapiens, UniProt P07858); assay: Relative inhibition of cathepsin B exopeptidase activity; type: biochemical; conditions: 50 μM; substrate Abz-Gly-Ile-Val-Arg-Ala-Lys-(Dnp)-OH; pH 5.0
# T2 construct: made in house; host or cells: E. coli
# Text: as §1, §2, §3
# [3] = molecular target: T3, cathepsin L (Homo sapiens, UniProt P07711); assay: Relative inhibition of cathepsin L; type: biochemical; conditions: for relative inhibition cathepsin L: 50 μM, substrate Z-Phe-Arg-AMC, pH 5.5
# T3 construct: made in house; host or cells: E. coli
# Text: as §1, §2, §3
# [4] = molecular target: T4, cathepsin V (Homo sapiens, UniProt O60911); assay: Relative inhibition of cathepsin V; type: biochemical; conditions: for relative inhibition cathepsin V: 50 μM, substrate Z-Phe-Arg-AMC, pH 5.5
# T4 construct: made in house; host or cells: Pichia pastoris
# Text: as §1, §2, §3
# [5] = molecular target: T5, human serum albumin (HSA) (Homo sapiens, UniProt P02768); conditions: reported value for similar complex; cited from earlier work
# T5 construct: purchased Sigma-Aldrich/Merck A8763
# [6] = test system: HSV-2; parameters: method as in our previous work; conditions: ref our previous work; cited from earlier work
# [7] = test system: S. aureus ATCC 25923; parameters: method as in our previous work; conditions: only on S. aureus strain; ref our previous work; cited from earlier work
# [8] = test system: S. aureus ATCC 25923; assay: Antibacterial MIC assay, S. aureus ATCC 25923; type: cell-based, Staphylococcus aureus; conditions: Staphylococcus aureus, ATCC25923; 18 h, visual inspection
# Description: (§4) The antibacterial effect of the complex was tested against the Gram-negative strain Escherichia coli (E. coli) ATCC 25922, the Gram-positive reference strain Staphylococcus aureus (S. aureus) ATCC 25923, and the methicillin-resistant S. aureus MRSA ATCC 43300 strain. MRSA strains are responsible for several difficult-to-treat hospital-acquired infections.
# (§5) The following bacterial strains were used in our experiments: Gram-positive S. aureus American Type Culture Collection (ATCC) 25923 as the methicillin-susceptible reference bacterial strain; methicillin-resistant S. aureus ATCC 43300 (MRSA) strain; E. coli ATCC 25922 as a Gram-negative bacterial strain.
# (§6) MIC values of the complexes were determined in 96-well plates based on the Clinical and Laboratory Standard Institute guidelines (CLSI guidelines). The stock solutions of the compound (dissolved in DMSO at 5 mM concentration) were diluted in 100 μL of Mueller Hinton Broth. Then, 10^–4 dilution of an overnight bacterial culture in 100 μL of medium was added to each well, with the exception of the medium control wells.
# [9] = test system: Colo205 cells; assay: MTT cytotoxicity assay, Colo205; type: cell-based, human; conditions: Homo sapiens, read-out: IC50 Colo205
# Description: (§7) Its cytotoxicity was determined in the human HeLa cervical cancer cell line, the drug-sensitive Colo205 and its resistant counterpart, the ABCB1 expressing Colo320 colon adenocarcinoma cancer cell lines, using the colorimetric 3-(4,5-dimethylthiazol-2-yl)-2,5-diphenyltetrazolium bromide (MTT) test. To investigate the selectivity toward cancer cells, the noncancerous fibroblast CCD-19Lu cell line was included.
# Drug-sensitive Colo205 (ATCC-CCL-222) and ABCB1 (MDR1)-LRP expressing and doxorubicin-resistant Colo320/MDR-LRP (ATCC-CCL-220.1) human colonic adenocarcinoma cell lines were purchased from LGC Promochem (Teddington, U.K.). The cells were cultured in RPMI 1640 medium supplemented with 10% heat-inactivated fetal bovine serum, 2 mM L-glutamine, 1 mM Na-pyruvate, and 10 mM HEPES.
# (§8) The tested compound was dissolved in DMSO to prepare a 5 mM stock solution, which was diluted in complete culture medium, to study the effect of compounds on cell growth of human colonic adenocarcinoma cell lines. Doxorubicin was used as the positive control. The cells were treated with a trypsin-versene (EDTA) solution. Cells were adjusted to a density of 1 × 10^4 cells in 100 μL of the appropriate culture medium and were added to each well, with the exception of the medium control wells. Except for the semiadherent Colo205 and Colo320 cell lines, the other adherent cell lines were seeded 24 h prior to the assay. Then, stock solutions were diluted in the appropriate culture medium, and 2-fold serial dilutions of compounds were prepared in 100 μL of the medium, horizontally. The final volume of the wells containing compounds and cells was 200 μL. The plates were incubated at 37 °C for 72 h; at the end of the incubation period, 20 μL of MTT solution (from a stock solution of 5 mg/mL) was added to each well. […] Cell growth was determined by measuring the optical density (OD) at 540/630 nm with a Multiscan EX ELISA reader (Thermo Labsystems, Cheshire, WA). […]
# [10] = test system: E. coli ATCC 25922; assay: Antibacterial MIC assay, E. coli ATCC 25922; type: cell-based, Escherichia coli; conditions: Escherichia coli, ATCC25922, 18 h, read-out: MIC E. coli ATCC 25922
# Description: as §4, §5, §6
# [11] = test system: S. aureus MRSA ATCC 43300; assay: Antibacterial MIC assay, S. aureus MRSA ATCC 43300; type: cell-based, Staphylococcus aureus; conditions: Staphylococcus aureus, 18 h, read-out: MIC S. aureus MRSA ATCC 43300
# Description: as §4, §5, §6
# [12] = test system: CCD-19Lu cells; assay: MTT cytotoxicity assay, CCD-19Lu; type: cell-based, human; conditions: Homo sapiens, CCD 19Lu, 72 h incubation, noncancerous fibroblast
# Description: as §7
# as §8, with “horizontally.” for “horizontally. The final volume of the wells containing compounds and cells was 200 μL. The plates were incubated at 37 °C for 72 h; at the end of the incubation period, 20 μL of MTT solution (from a stock solution of 5 mg/mL) was added to each well.”
# [13] = pH-dependent UV-vis spectrophotometry (solution speciation, pKa of aqua ligand); type: physicochemical
# Text: However, at pH > ∼8, the spectrum changes considerably (Figure ).
# The isosbestic point indicates a single equilibrium process, which is most likely deprotonation of the coordinated aqua ligand in complex 4a. This process was studied in our previous work for similar fac-[Re(CO)3] complexes formed with (N,N)-bearing ligands, and the calculated pK a (H2O) is around 8. […] Similar pK a values in the presence and absence of the chloride ions indicate a low chloride affinity of the aqua complex. Based on these values, the fraction of [Re(CO)3(pth)(H2O)] is 100% at pH = 7.4. The analogous half-sandwich complex [Ru(cym)(pth)(H2O)]^+ was also characterized by high solution stability, and a similarly high pK a value (10.34 (0.2 M KCl)).
# For the solution studies, an Agilent Cary 3500 spectrophotometer was utilized to obtain UV–vis spectra in the wavelength range of 200–1100 nm. The path length ( l ) was 1 cm in all cases. The concentrations of the complex were between 10 and 60 μM. For investigation of the effect of chloride ions, the samples contained 60 μM complex and 0–7300 equiv of Cl^–. For HSA-containing samples, complex concentrations were 60 μM, and 0.5 equiv of biomolecule (or 6 equiv of MIM) was added for kinetic studies, respectively. Individual samples contained 0–34 μM HSA. The computer program HypSpec was used to obtain equilibrium constants.
# T3 sequence (P07711 114-333): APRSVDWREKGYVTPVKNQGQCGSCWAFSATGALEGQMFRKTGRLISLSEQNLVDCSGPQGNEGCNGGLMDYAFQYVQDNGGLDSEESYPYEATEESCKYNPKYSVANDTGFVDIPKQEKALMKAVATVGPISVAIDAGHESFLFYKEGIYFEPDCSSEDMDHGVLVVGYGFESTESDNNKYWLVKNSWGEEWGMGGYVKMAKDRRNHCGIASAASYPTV
# T4 sequence (O60911 114-334): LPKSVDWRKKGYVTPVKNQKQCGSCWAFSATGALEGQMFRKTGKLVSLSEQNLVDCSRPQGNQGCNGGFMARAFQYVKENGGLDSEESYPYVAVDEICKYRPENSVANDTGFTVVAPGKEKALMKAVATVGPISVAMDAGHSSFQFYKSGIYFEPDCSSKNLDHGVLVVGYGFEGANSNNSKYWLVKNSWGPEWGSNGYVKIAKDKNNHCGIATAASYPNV
# T5 sequence (P02768 25-609): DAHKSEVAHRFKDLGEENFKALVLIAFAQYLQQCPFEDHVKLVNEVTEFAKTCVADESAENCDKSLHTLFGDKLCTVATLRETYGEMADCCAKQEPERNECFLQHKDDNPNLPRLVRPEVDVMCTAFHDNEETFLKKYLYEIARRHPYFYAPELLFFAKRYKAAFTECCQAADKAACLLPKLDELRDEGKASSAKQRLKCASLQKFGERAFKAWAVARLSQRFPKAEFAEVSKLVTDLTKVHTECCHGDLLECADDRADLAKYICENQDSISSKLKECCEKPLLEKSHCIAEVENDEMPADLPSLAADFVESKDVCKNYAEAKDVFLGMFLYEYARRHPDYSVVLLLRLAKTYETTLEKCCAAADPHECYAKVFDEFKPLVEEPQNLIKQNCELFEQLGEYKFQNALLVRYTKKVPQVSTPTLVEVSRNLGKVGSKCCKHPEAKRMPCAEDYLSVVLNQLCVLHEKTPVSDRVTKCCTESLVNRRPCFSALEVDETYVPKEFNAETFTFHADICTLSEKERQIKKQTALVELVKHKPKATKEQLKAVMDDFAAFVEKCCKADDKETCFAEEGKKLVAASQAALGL
molecule,measurement,setting,value
"[C-]#[O+].[C-]#[O+].[C-]#[O+].[C-]#[O+].[C-]#[O+].[Cl][Re] [[Re(CO)5Cl], rhenium(I) pentacarbonyl chloride]",relative inhibition cathepsin B endopeptidase,[1],6.7 ± 0.7%
same,relative inhibition cathepsin B exopeptidase,[2],12.2 ± 3.0%
same,relative inhibition cathepsin L,[3],1.6 ± 6.5%
same,relative inhibition cathepsin V,[4],4.6 ± 0.3%
"Cc1ccc(C(C)C)cc1.[Cl-].[O-][n+]1ccccc1[S-].[Ru+2] [[Ru(cym)(pth)Cl], [ruthenium(η^6-p-cymene)(pyrithionato)(chlorido)]]",log KQ quenching constant,[5],5.81
same,inhibition of growth of the HSV-2 virus,[6],did not inhibit the growth of the HSV-2 virus
same,MIC S. aureus strain,[7],50 µM
same,relative inhibition cathepsin B endopeptidase,[1],9.4 ± 1.8%
same,relative inhibition cathepsin B exopeptidase,[2],5.4 ± 7.2%
same,relative inhibition cathepsin L,[3],1.5 ± 1.5%
same,relative inhibition cathepsin V,[4],1.7 ± 5.7%
"N#Cc1ccccc1 [benzonitrile, reference compound]",MIC,[8],> 100 µM
same,IC50,"[9]; COLO 205, 72 h",> 100000 nM
same,MIC,[10],> 100 µM
same,MIC,[11],> 100 µM
"COc1cccc2c1C(=O)c1c(O)c3c(c(O)c1C2=O)C[C@@](O)(C(=O)CO)C[C@@H]3O[C@H]1C[C@H](N)[C@H](O)[C@H](C)O1 [doxorubicin, reference compound]",IC50,"[9]; COLO 205, 72 h incubation, MTT",584 ± 55 nM
same,IC50,[12],244 ± 26 nM
"[O-][n+]1ccccc1S [pthH, Pyrithione]",inhibition at 50 µM,"[1]; pH 6, read-out: relative inhibition cathepsin B endopeptidase",4.3 ± 2.3%
same,relative inhibition cathepsin B exopeptidase,[2],n.i. ^a
same,inhibition at 50 µM,"[3]; pH 5.5, read-out: relative inhibition cathepsin L",0.5 ± 1.9%
same,inhibition at 50 µM,"[4]; pH 5.5, read-out: relative inhibition cathepsin V",2.3 ± 3.2%
[Re(CO)3(pth)(H2O)] [complex 4a],pKa (deprotonation of coordinated aqua ligand),"[13]; 0.1 M KCl, 25.0 °C",10.27 ± 0.01
same,pKa (deprotonation of coordinated aqua ligand),[13]; 0.1 M KNO3,10.15 ± 0.01
same,fraction of aqua complex,"[13]; pH = 7.4, based on the pKa values",100%
zinc pyrithione,relative inhibition cathepsin B endopeptidase,[1],8.7 ± 2.2%
same,relative inhibition cathepsin B exopeptidase,[2],11.1 ± 2.2%
same,relative inhibition cathepsin L,[3],1.3 ± 2.4%
same,relative inhibition cathepsin V,[4],1.9 ± 3.0%
